Our source for the IC50 values is publication PMC6445160, “Naphthoquinone amino acid derivatives, synthesis and biological activity as proteasome inhibitors” (Journal of Enzyme Inhibition and Medicinal Chemistry, 2017).

Like-named read-outs stand apart in the source and are kept apart here.

Assay in all cases: fluorogenic AMC peptide hydrolysis
Holding throughout (type): biochemical

In experiment [1] the test system is T1, 20S proteasome β5 subunit, chymotrypsin-like (ChT-L) activity.
T1 construct: gene PSMB5; native 20S proteasome purified from lymphoblastoid cells
As to conditions: Suc-LLVY-AMC, 37 °C, 30 min, enzyme pretreated with compound; read-out: IC50 (μm)^aChT-L. From the text: fluorogenic AMC peptide hydrolysis on 20S proteasome β5 subunit, chymotrypsin-like (ChT-L) activity

Experiment [2] concerns T2, 20S proteasome β2 subunit, trypsin-like (T-L) activity.
T2 construct: gene PSMB7; native 20S proteasome purified from lymphoblastoid cells
As to conditions: Boc-LRR-AMC, 37 °C, 30 min, enzyme pretreated with compound. From the text:
fluorogenic AMC peptide hydrolysis on 20S proteasome β2 subunit, trypsin-like (T-L) activity

For experiment [3], the system named is T1, 20S proteasome β5 subunit, chymotrypsin-like (ChT-L) activity. As to conditions: Suc-LLVY-AMC, 37 °C, 30 min, enzyme pretreated with compound.

On to `O=C(N[C@@H](Cc1ccccc1)C(=O)NCCCCNC1=C(Cl)C(=O)c2ccccc2C1=O)c1ccccc1` [compound 27, Bz-Phe-NH-(CH2)4-NH-ClNafQ], for which the IC50 in experiment [1] worked out at 10.1 ± 0.7 µM.

`O=C1C(Cl)=C(NCCCCNC(=O)[C@H](Cc2ccccc2)NC(=O)c2cccc3ccccc23)C(=O)c2ccccc21` [compound 28, 1-NaftCO-Phe-NH-(CH2)4-NH-ClNafQ]: the figures for the IC50 in experiment [1] and in experiment [2] were 9.3 ± 1.02 µM and 79.7 ± 6.97 µM, respectively.

`NC(=O)C[C@H](NC(=O)c1ccc([N+](=O)[O-])cc1)C(=O)NCCNC1=C(Cl)C(=O)c2ccccc2C1=O` [compound 6, NBz-Asn-NH-(CH2)2-NH-ClNafQ]: the IC50 in experiment [1] is 0.92 ± 0.09 µM; in experiment [2], 17.2 ± 1.09 µM.

For the compound `Cc1c(O)cccc1C(=O)N[C@@H](Cc1ccccc1)C(=O)NCCNC1=C(Cl)C(=O)c2ccccc2C1=O` [compound 9, HMB-Phe-NH-(CH2)2-NH-ClNafQ], the IC50 in experiment [1] was 0.85 ± 0.07 µM; in experiment [2], above 100 µM.

For the compound `NC(=O)CC(NC(=O)c1ccc([N+](=O)[O-])cc1)C(=O)NCCCCNC1=C(Cl)C(=O)c2ccccc2C1=O` (stereo not drawn) [compound 22, NBz-Asn-NH-(CH2)4-NH-ClNafQ], the IC50 in experiment [1] worked out at 28.5 ± 3.05 µM.

With `O=C1C(Cl)=C(NCCNC(=O)[C@H](CO)NC(=O)c2cccc3ccccc23)C(=O)c2ccccc21` [compound 16, 1-NaftCO-Ser-NH-(CH2)2-NH-ClNafQ], the half-maximal inhibitory concentration (IC50) in experiment [3] and in experiment [2] was above 100 µM each time.

With `Cc1c(O)cccc1C(=O)N[C@@H](CC(C)C)C(=O)NCCCCNC1=C(Cl)C(=O)c2ccccc2C1=O` [compound 17, HMB-Leu-NH-(CH2)4-NH-ClNafQ], the IC50 was 11.5 ± 1.02 µM in experiment [1] and above 100 µM in experiment [2].

Turning to `Cc1c(O)cccc1C(=O)N[C@@H](CC(N)=O)C(=O)NCCNC1=C(Cl)C(=O)c2ccccc2C1=O` [compound 5, HMB-Asn-NH-(CH2)2-NH-ClNafQ], the IC50 was 8.47 ± 0.75 µM in experiment [1] and 68.4 ± 5.14 µM in experiment [2].

As to `O=C(NC(CO)C(=O)NCCCCNC1=C(Cl)C(=O)c2ccccc2C1=O)c1ccc([N+](=O)[O-])cc1` (stereo not drawn) [compound 30, NBz-Ser-NH-(CH2)4-NH-ClNafQ], the half-maximal inhibitory concentration (IC50) was determined as 88.7 ± 8.03 µM in experiment [1] and 83.3 ± 7.21 µM in experiment [2].

Consider `CC(C)C[C@H](NC(=O)c1cccc2ccccc12)C(=O)NCCCCNC1=C(Cl)C(=O)c2ccccc2C1=O` [compound 20, 1-NaftCO-Leu-NH-(CH2)4-NH-ClNafQ], for which the IC50 in experiment [1] turned out to be 49.3 ± 5.02 µM.

Consider “1-NaftCO-Ser-NH-cHx-NH-ClNafQ [compound 48]”, for which the IC50 in experiment [3] was above 100 µM.

For `CC(C)C[C@H](NC(=O)c1ccccc1)C(=O)NCCCCNC1=C(Cl)C(=O)c2ccccc2C1=O` [compound 19, Bz-Leu-NH-(CH2)4-NH-ClNafQ], the IC50 in experiment [1] was found to be 10.1 ± 0.7 µM.

For `O=C(N[C@@H](CO)C(=O)NCCCCNC1=C(Cl)C(=O)c2ccccc2C1=O)c1ccccc1` [compound 31, Bz-Ser-NH-(CH2)4-NH-ClNafQ], the half-inhibitory concentration (IC50) in experiment [1] is 84.1 ± 6.08 µM.

With `NC(=O)C[C@H](NC(=O)c1ccccc1)C(=O)NCCNC1=C(Cl)C(=O)c2ccccc2C1=O` [compound 7, Bz-Asn-NH-(CH2)2-NH-ClNafQ], the IC50 amounted to 7.99 ± 0.67 µM in experiment [1] and 49.7 ± 3.87 µM in experiment [2].

For the compound HMB-Ser-NH-cHx-NH-ClNafQ [compound 45], the IC50 in experiment [3] was above 100 µM.

In the case of “1-NaftCO-Asn-NH-cHx-NH-ClNafQ [compound 40]”, the IC50 in experiment [3] was above 100 µM.

Turning to `O=C(N[C@@H](CO)C(=O)NCCNC1=C(Cl)C(=O)c2ccccc2C1=O)c1ccccc1` [compound 15, Bz-Ser-NH-(CH2)2-NH-ClNafQ], the values for the half-inhibitory concentration (IC50) in experiment [1] and in experiment [2] were 24.1 ± 1.98 µM and 53.8 ± 4.88 µM, respectively.

Turning to `NC(=O)C[C@H](NC(=O)c1ccccc1)C(=O)NCCCCNC1=C(Cl)C(=O)c2ccccc2C1=O` [compound 23, Bz-Asn-NH-(CH2)4-NH-ClNafQ], the IC50 in experiment [1] is 24.2 ± 2.05 µM.

On to `NC(=O)C[C@H](NC(=O)c1cccc2ccccc12)C(=O)NCCCCNC1=C(Cl)C(=O)c2ccccc2C1=O` [compound 24, 1-NaftCO-Asn-NH-(CH2)4-NH-ClNafQ], for which, in experiment [1], the IC50 was found to be 78.3 ± 6.95 µM.

As to HMB-Phe-NH-cHx-NH-ClNafQ [compound 41], in experiment [3], the IC50 was above 100 µM.

On to `O=C(NC(CO)C(=O)NCCNC1=C(Cl)C(=O)c2ccccc2C1=O)c1ccc([N+](=O)[O-])cc1` (stereo not drawn) [compound 14, NBz-Ser-NH-(CH2)2-NH-ClNafQ], for which the IC50 came to 83.5 ± 8.03 µM in experiment [1] and 63.4 ± 7.01 µM in experiment [2].

In the case of `O=C1C(Cl)=C(NCCNC(=O)[C@H](Cc2ccccc2)NC(=O)c2cccc3ccccc23)C(=O)c2ccccc21` [compound 12, 1-NaftCO-Phe-NH-(CH2)2-NH-ClNafQ], the concentration for half-maximal inhibition (IC50) in experiment [1] is 9.14 ± 1.02 µM; in experiment [2], 49.8 ± 3.97 µM.

In the case of `Cc1c(O)cccc1C(=O)N[C@@H](CO)C(=O)NCCCCNC1=C(Cl)C(=O)c2ccccc2C1=O` [compound 29, HMB-Ser-NH-(CH2)4-NH-ClNafQ], the results for the concentration for half-maximal inhibition (IC50) in experiment [1] and in experiment [2] were 45.7 ± 2.59 µM and 80.2 ± 6.91 µM, respectively.

With `Cc1c(O)cccc1C(=O)N[C@@H](CO)C(=O)NCCNC1=C(Cl)C(=O)c2ccccc2C1=O` [compound 13, HMB-Ser-NH-(CH2)2-NH-ClNafQ], the half-inhibitory concentration (IC50) in experiment [3] and in experiment [2] was above 100 µM throughout.

For `O=C(NC(Cc1ccccc1)C(=O)NCCCCNC1=C(Cl)C(=O)c2ccccc2C1=O)c1ccc([N+](=O)[O-])cc1` (stereo not drawn) [compound 26, NBz-Phe-NH-(CH2)4-NH-ClNafQ], the IC50 in experiment [1] came out at 9.1 ± 0.6 µM.

Consider NBz-Phe-NH-cHx-NH-ClNafQ [compound 42], for which the IC50 in experiment [1] is 82.1 ± 6.52 µM.

As for HMB-Asn-NH-cHx-NH-ClNafQ [compound 37], the IC50 in experiment [3] is above 100 µM.

On to `Cc1c(O)cccc1C(=O)N[C@@H](Cc1ccccc1)C(=O)NCCCCNC1=C(Cl)C(=O)c2ccccc2C1=O` [compound 25, HMB-Phe-NH-(CH2)4-NH-ClNafQ], for which the IC50 in experiment [1] stood at 17.5 ± 1.07 µM.

HMB-Leu-NH-cHx-NH-ClNafQ [compound 33]: in experiment [3], the IC50 is above 100 µM.

Consider Bz-Phe-NH-cHx-NH-ClNafQ [compound 43], for which, in experiment [1], the IC50 is 73.3 ± 3.9 µM.

As to `CC(C)C[C@H](NC(=O)c1ccc([N+](=O)[O-])cc1)C(=O)NCCNC1=C(Cl)C(=O)c2ccccc2C1=O` [compound 2, NBz-Leu-NH-(CH2)2-NH-ClNafQ], the values for the IC50 in experiment [1] and in experiment [2] were above 100 µM and 65.3 ± 5.91 µM, respectively.

For the compound `Cc1c(O)cccc1C(=O)N[C@@H](CC(N)=O)C(=O)NCCCCNC1=C(Cl)C(=O)c2ccccc2C1=O` [compound 21, HMB-Asn-NH-(CH2)4-NH-ClNafQ], in experiment [1], the IC50 was found to be 65.4 ± 6.5 µM.

As to “1-NaftCO-Phe-NH-cHx-NH-ClNafQ [compound 44]”, in experiment [3], the IC50 was above 100 µM.

With Bz-Asn-NH-cHx-NH-ClNafQ [compound 39], the IC50 in experiment [3] was above 100 µM.

Regarding NBz-Leu-NH-cHx-NH-ClNafQ [compound 34], in experiment [1], the half-maximal inhibitory concentration (IC50) turned out to be 42.1 ± 5.02 µM.

Regarding “NBz-Leu-NH-(CH2)4-NH-ClNafQ [compound 18]”, the IC50 in experiment [1] was found to be 8.4 ± 0.72 µM.

As to `O=C1C(Cl)=C(NCCCCNC(=O)[C@H](CO)NC(=O)c2cccc3ccccc23)C(=O)c2ccccc21` [compound 32, 1-NaftCO-Ser-NH-(CH2)4-NH-ClNafQ], the half-inhibitory concentration (IC50) is above 100 µM in experiment [1] and 60.8 ± 4.88 µM in experiment [2].

Take `CC(C)C[C@H](NC(=O)c1ccccc1)C(=O)NCCNC1=C(Cl)C(=O)c2ccccc2C1=O` [compound 3, Bz-Leu-NH-(CH2)2-NH-ClNafQ]: the IC50 is above 100 µM in experiment [1] and 58.4 ± 5.13 µM in experiment [2].

On to `CC(C)C[C@H](NC(=O)c1cccc2ccccc12)C(=O)NCCNC1=C(Cl)C(=O)c2ccccc2C1=O` [compound 4, 1-NaftCO-Leu-NH-(CH2)2-NH-ClNafQ], for which the IC50 amounted to 0.82 ± 0.08 µM in experiment [1] and 21.1 ± 1.85 µM in experiment [2].

Turning to `Cc1c(O)cccc1C(=O)N[C@@H](CC(C)C)C(=O)NCCNC1=C(Cl)C(=O)c2ccccc2C1=O` [compound 1, HMB-Leu-NH-(CH2)2-NH-ClNafQ], the half-inhibitory concentration (IC50) in experiment [1] is above 100 µM; in experiment [2], 77.4 ± 6.51 µM.

Turning to NBz-Asn-NH-cHx-NH-ClNafQ [compound 38], in experiment [3], the concentration for half-maximal inhibition (IC50) was above 100 µM.

Regarding `NC(=O)C[C@H](NC(=O)c1cccc2ccccc12)C(=O)NCCNC1=C(Cl)C(=O)c2ccccc2C1=O` [compound 8, 1-NaftCO-Asn-NH-(CH2)2-NH-ClNafQ], the IC50 in experiment [1] came out at 76.2 ± 6.82 µM; in experiment [2] it was 35.2 ± 2.77 µM.

In the case of Bz-Leu-NH-cHx-NH-ClNafQ [compound 35], the IC50 in experiment [1] turned out to be 23.1 ± 1.7 µM.

For `O=C(N[C@@H](Cc1ccccc1)C(=O)NCCNC1=C(Cl)C(=O)c2ccccc2C1=O)c1ccccc1` [compound 11, Bz-Phe-NH-(CH2)2-NH-ClNafQ], the IC50 in experiment [1] is 6.22 ± 0.48 µM; in experiment [2], 53.2 ± 6.7 µM.

As for NBz-Ser-NH-cHx-NH-ClNafQ [compound 46], the 50% inhibitory concentration (IC50) in experiment [3] was above 100 µM.

In the case of `O=C(N[C@@H](Cc1ccccc1)C(=O)NCCNC1=C(Cl)C(=O)c2ccccc2C1=O)c1ccc([N+](=O)[O-])cc1` [compound 10, NBz-Phe-NH-(CH2)2-NH-ClNafQ], the figures for the IC50 in experiment [1] and in experiment [2] were 0.77 ± 0.06 µM and 35.4 ± 2.91 µM, respectively.

As to “1-NaftCO-Leu-NH-cHx-NH-ClNafQ [compound 36]”, the 50% inhibitory concentration (IC50) in experiment [1] stood at 59.3 ± 6.42 µM.

Consider Bz-Ser-NH-cHx-NH-ClNafQ [compound 47], for which the 50% inhibitory concentration (IC50) in experiment [3] was above 100 µM.
